The values below come from patent publication EP0745595A1, “3-(3-Aryloxyphenyl)-1-(substituted methyl)-s-triazine-2,4,6-oxo or thiotrione herbicidal agents” (American Cyanamid Company, priority 1995, dated 1996).

Type in all cases: in vivo
The subject of one series is CHENOPODIUM ALBUM, L. Kind of series: Preemergence herbicidal evaluation, CHEAL (Lambsquarters, Common). The following applies: rated four to five weeks after treatment. From the text:
(§1) Results of herbicide evaluation are expressed on a rating scale (0-9). The scale is based upon a visual observation of plant stand, vigor, malformation, size, chlorosis and overall plant appearance as compared with a control.
The preemergence herbicidal activity of the test compounds of the present invention is exemplified by the following tests in which the seeds of a variety of monocotyledonous and dicotyledonous plants are separately mixed with potting soil and planted on top of approximately one inch of soil in separate pint cups. […] The treated cups are then placed on greenhouse benches, watered and cared for in accordance with conventional greenhouse procedures. From four to five weeks after treatment, the tests are terminated and each cup is examined and rated according to the rating system provided in Example 40.
The compounds evaluated are reported by compound number given in Example 40.

In the next series the test system is CYPERUS IRIA. Kind of series: Preemergence weed control under flooded paddy conditions, CYPIR (Rice Flatsedge). The following applies: preemergence, 3-4 weeks after treatment. The procedure:
as §1
(§2) Preemergence herbicidal activity under flooded paddy conditions is determined as follows: plant seeds or propagating organs are planted in the top 0.5 cm of silt loam soil in 32 oz. plastic containers with a diameter of 10.5 cm and no drainage holes. Water is added to these containers and maintained at 1.5 to 3 cm above the soil surface for the duration of the experiment. […] The treated containers are placed on greenhouse benches and cared for according to normal greenhouse procedures.- Three to four weeks after treatment the test is terminated and each container is examined and herbicidal effect rated according to the rating system provided in Example 40. The compounds evaluated are reported by compound number given in Example 40.
(§3) Plant species employed in this example are reported by header abbreviation, common name and scientific name.

Series [1] relates to CYPERUS SEROTINUS, ROTTB. Kind of series: Preemergence weed control under flooded paddy conditions, CYPSE (Flatsedge). As to conditions: preemergence, 3-4 weeks after treatment. As for the experimental part:
as §1, §2, §3

Another series relates to […], PRESL. Kind of series: Preemergence weed control under flooded paddy conditions, MOOVA (Monochoria). As to conditions: preemergence, 3-4 weeks after treatment. The procedure:
as §1
Preemergence herbicidal activity under flooded paddy conditions is determined as follows: plant seeds or propagating organs are planted in the top 0.5 cm of silt loam soil in 32 oz. plastic containers with a diameter of 10.5 cm and no drainage holes. Water is added to these containers and maintained at 1.5 to 3 cm above the soil surface for the duration of the experiment. The test compounds are applied as aqueous/acetone mixtures 50/50 v/v pipetted directly into the flood water to give the equivalent of about 0.5, 0.25, 0.125 and 0.063 kg/ha of active ingredient. The treated containers are placed on greenhouse benches and cared for according to normal greenhouse procedures.- Three to four weeks after treatment the test is terminated and each container is examined and herbicidal effect rated according to the rating system provided in Example 40. The compounds evaluated are reported by compound number given in Example 40.
as §3

The next series relates to SAGITTARIA PYGMAEA, L. Kind of series: Preemergence weed control under flooded paddy conditions, SAGPY (Arrowhead (Pygmaea)). The following applies: preemergence, 3-4 weeks after treatment. As for the experimental part:
as §1, §2, §3

For series [2], the system named is ORYZA SATIVA, L. TEBONNET
Briefly: Rice tolerance to post-transplant applications under flooded paddy conditions, ORYSAT (Rice, Tebonnet). The following applies: post-transplant rice, 3-4 weeks after treatment. The procedure: as §1
The tolerance of transplanted rice to post-transplanted herbicide applications is determined as follows: two ten-day-old rice seedlings (CV. Tebonnet) are transplanted into a silt loam soil in 32 oz. plastic containers with a diameter of 10.5 cm and no drainage holes. After transplanting the containers are flooded and the water level is maintained at 1.5 to 3 cm above the soil surface. […] The treated containers are placed on greenhouse benches, watered such that the water level is maintained as stated above, and cared for according to normal greenhouse procedures. Three to four weeks after treatment the test is terminated and each container is examined and herbicidal effect rated according to the rating system provided in Example 40. The compounds evaluated are reported by compound number given in Example 40.
as §3

Turning to `COC(=O)Cn1c(=O)n(C)c(=O)n(-c2cc(Oc3c(Cl)cc(Cl)cc3Cl)ccc2[N+](=O)[O-])c1=O` [Compound 33, Methyl tetrahydro-3-methyl-5-[2-nitro-5-(2,4,6-trichlorophenoxy)phenyl]-2,4,6-trioxo-s-triazine-1(2H)-acetate], the CHEAL herbicidal rating is given as 9.0 in the series with CHENOPODIUM ALBUM, L. (Rate 0.125 kg/ha); 9.0 in the series with CHENOPODIUM ALBUM, L. (Rate 0.250 kg/ha); 9.0 in the series with CHENOPODIUM ALBUM, L. (Rate 0.500 kg/ha). Further, the “Herbicidal effect rating, CYPIR” value with CYPERUS IRIA (0.063 kg/ha), in the series with CYPERUS IRIA (0.125 kg/ha), with CYPERUS IRIA (0.250 kg/ha) and in the series with CYPERUS IRIA (0.500 kg/ha) was 9.0 in each case. The “Herbicidal effect rating, CYPSE” value in series [1] (0.063 kg/ha), in series [1] (0.125 kg/ha), in series [1] (0.250 kg/ha) and in series [1] (0.500 kg/ha) was 0.0 in each case. Also, the “Herbicidal effect rating, MOOVA” value amounted to 9.0 in series […], PRESL. (0.063 kg/ha); 9.0 in series […], PRESL. (0.125 kg/ha); 9.0 in series […], PRESL. (0.250 kg/ha); 9.0 in series […], PRESL. (0.500 kg/ha). Also, the “Herbicidal effect rating, SAGPY” value in the series on SAGITTARIA PYGMAEA, L. (0.063 kg/ha) amounted to 0.0; with SAGITTARIA PYGMAEA, L. (0.125 kg/ha), 0.0; in the series with SAGITTARIA PYGMAEA, L. (0.250 kg/ha) it was 0.0; in the series with SAGITTARIA PYGMAEA, L. (0.500 kg/ha) it was 0.0. Moreover, the “Herbicidal effect rating, ORYSAT” value in series [2] (0.063 kg/ha) came out at 3.0; in series [2] (0.125 kg/ha) it was 3.0; in series [2] (0.250 kg/ha) it was 3.0; in series [2] (0.500 kg/ha), 4.0.
